The text below walks through data of US9758492B2, “IDO inhibitors” (Bristol-Myers Squibb Company, priority 2013, dated 2017).

In assay [1] the target is T1, IDO (Homo sapiens, UniProt P14902). Put plainly: LLE_IDO_ABS_DR (IDO assay).
Assay [2] deals with T1, IDO. Put plainly: Kynurenine assay in Hela cells stimulated with IFN-γ to express IDO. It counts as cell-based. Set-up: endogenous in cells; host or cells: HeLa (ATCC CCL-2), stimulated with human recombinant IFN-gamma. The following applies: 20 h, read-out: Hela Kyurenine (IC50). Here is the method: IFNg (R&D, 28-IF-100)—resuspend at 10 ug/mL in PBS with 0.1% BSA 30% TCA
Ehrlich reagent (2% w/v p-dimethylaminobenzaldehyde in glacial acetic acid)
Cell Titer 96 Aqueous Non-Radioactive Cell Proliferation Assay, MTS (Promega, Cat # G5430)
Cell Lines and Culture Conditions
Hela cancer cell lines were acquired from the American Type Culture Collection. Cells were maintained in phenol red free-RPMI1640 medium containing high glucose and L-glutamine (Invitrogen) supplemented with 10% fetal bovine serum (FBS; Invitrogen). Cell cultures were incubated at 37° C., 5% CO2, and 100% humidity.
Cell Treatment and Kynurenine Assay
Hela cells were seeded on 96-well plates (40,000 cells per well) and allowed to adhere for 5-6 hours. Cells were then treated with vehicle (DMSO) or with IDO inhibitor at a top dose of 30 μM (3-fold dilution all the way down to 1.5 nM). A final concentration of 100 ng/mL of human recombinant IFN-γ (R&D, 28-IF-100) was immediately added to the cells to stimulate IDO expression. Treated cells were then incubated for 20 hours at 37° C. At the end of the 20 h incubation, reactions were terminated by the addition of 30% TCA to each well. Plates were incubated for 30 minutes at 50° C. to hydrolyze N-formylkynurenine to kynurenine. Cells were centrifuged 10 minutes at 2400 rpm. 100 ul of supernatants were transferred to new 96 flat well plates and mixed with 100 ul Ehrlich reagent. The resulting solution was incubated 10 minutes at RT. Absorbance at 490 nm was read using Spectra Max 384 (Molecular Devices).

T1 sequence (P14902 whole entry): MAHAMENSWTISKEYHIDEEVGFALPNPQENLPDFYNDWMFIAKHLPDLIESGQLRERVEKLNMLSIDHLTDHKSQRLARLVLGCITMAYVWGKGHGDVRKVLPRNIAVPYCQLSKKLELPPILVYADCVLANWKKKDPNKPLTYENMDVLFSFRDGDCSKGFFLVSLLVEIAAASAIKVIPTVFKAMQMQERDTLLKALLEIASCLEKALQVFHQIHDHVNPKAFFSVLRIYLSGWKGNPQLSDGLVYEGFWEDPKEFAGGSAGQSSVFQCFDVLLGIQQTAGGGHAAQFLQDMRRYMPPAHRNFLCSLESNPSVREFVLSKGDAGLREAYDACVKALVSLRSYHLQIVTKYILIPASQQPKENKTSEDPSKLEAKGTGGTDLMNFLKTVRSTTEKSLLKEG

The term IC50 denotes the midpoint of a concentration-inhibition curve. Regarding `CN(c1ncc(-c2ccccc2-c2nnn[nH]2)cc1NC(=O)Nc1ccccc1F)C1CCCCC1` [Example 37, 1-(5-(2-(1H-Tetrazol-5-yl)phenyl)-2-(cyclohexyl(methyl)amino)pyridin-3-yl)-3-(2-fluorophenyl)urea], the IC50 on IDO [1] was 40 nM; at IDO [2] it was 10 nM.
As to `COC(CN(C)c1ccc(-c2ccccc2-c2nnn[nH]2)cc1NC(=O)Nc1ccc(C)cc1)OC` [Example 55, 1-(4-((2,2-dimethoxyethyl) (methyl)amino)-2′-(1H-tetrazol-5-yl)biphenyl-3-yl)-3-p-tolylurea], the IC50 at IDO [1] amounted to 230 nM; at IDO [2], 110 nM.
For `Cc1ccc(NC(=O)Nc2cc(-c3ccccc3C(=O)O)ccc2N2CCC[C@@H]3CCCC[C@@H]32)cc1` [Example 49, 4′-((4aS,8aS)-octahydroquinolin-1(2H)-yl)-3′-(3-p-tolylureido)biphenyl-2-carboxylic acid] the same measures were 160 nM and 180 nM.
For `CN(c1ccc(-c2ccccc2-c2nnn[nH]2)cc1NC(=O)Nc1ccc(C(F)(F)F)cc1)C1CCCCC1` [Example 2, 1-(4-(Cyclohexyl(methyl)amino)-2′-(1H-tetrazol-5-yl)biphenyl-3-yl)-3-(4-(trifluoromethyl)phenyl)urea], the concentration for half-maximal inhibition (IC50) was determined as 90 nM on IDO [1] and 20 nM at IDO [2].
For `COCCN(CCOC)c1ccc(-c2ccccc2C(=O)O)cc1NC(=O)Nc1ccc(C)cc1` [Example 56, 4′-(bis(2-methoxyethyl)amino)-3′-(3-p-tolylureido)biphenyl-2-carboxylic acid], in that order: 3590 nM and 3120 nM.
For `Cc1cccc(NC(=O)Nc2cc(-c3ccccc3-c3nnn[nH]3)ccc2N(C)C2CCCCC2)c1` [Example 211, 1-(4-(cyclohexyl(methyl)amino)-2′-(1H-tetrazol-5-yl)biphenyl-3-yl)-3-m-tolylurea], in that order: 490 nM and 110 nM.
For `Cc1ccc(NC(=O)Nc2cc(-c3ccccc3C(=O)O)ccc2NC2CCCCC2)cc1` [Example 48, 4′-(cyclohexyl-amino)-3′-(3-p-tolylureido)biphenyl-2-carboxylic acid], the values for the IC50 at IDO [1] and at IDO [2] were 500 nM and 850 nM, respectively.
In the case of `Cc1ccc(NC(=O)Nc2cc(-c3ccccc3-c3nnn[nH]3)ccc2N(C)C2CCCC2)cc1` [Example 3, 1-(4-(Cyclopentyl(methyl)amino)-2′-(1H-tetrazol-5-yl)biphenyl-3-yl)-3-p-tolylurea], the figures for the IC50 against IDO [1] and at IDO [2] were 60 nM and 10 nM, respectively.
In the case of `Cc1ccc(NC(=O)Nc2cc(-c3ccccc3C(=O)O)ccc2N(CC(F)F)CC2CC2)cc1` [Example 61], the IC50 was 510 nM at IDO [1] and 700 nM at IDO [2].
On to `Cc1ccc(NC(=O)Nc2cc(-c3ccccc3-c3nnn[nH]3)ccc2N2CCC[C@@H]3CCCC[C@@H]32)cc1` [Example 47, 1-(4-((4aS,8aS)-octahydroquinolin-1(2H)-yl)-2′-(1H-tetrazol-5-yl)biphenyl-3-yl)-3-p-tolylurea], for which the IC50 was 40 nM against IDO [1] and 10 nM on IDO [2].
For `CCN(c1ccc(-c2ccccc2-c2nnn[nH]2)cc1NC(=O)Nc1ccccc1F)C1CCCCC1` [Example 53, 1-(4-(cyclohexyl (ethyl)amino)-2′-(1H-tetrazol-5-yl)biphenyl-3-yl)-3-(2-fluorophenyl) urea], in that order: 3.45 nM and 0.772 nM.
For `CCCN(CC1CC1)c1ccc(-c2ccccc2C(=O)O)cc1NC(=O)Nc1ccc(C)cc1` [Example 58, 4′-((cyclopropylmethyl) (propyl)amino)-3′-(3-p-tolylureido) biphenyl-2-carboxylic acid], in that order: 100 nM and 60 nM.
In the case of `CN(c1ccc(-c2ccccc2C(=O)O)cc1NC(=O)Nc1ccccc1Cl)C1CCCCC1` [Example 215, 3′-(3-(2-chlorophenyl)ureido)-4′-(cyclohexyl(methyl)amino) biphenyl-2-carboxylic acid], the half-inhibitory concentration (IC50) worked out at 1280 nM at IDO [1] and 120 nM on IDO [2].
For `COCCN(CCOC)c1ccc(-c2ccccc2-c2nnn[nH]2)cc1NC(=O)Nc1ccc(C)cc1` [Example 57, 1-(4-(bis(2-methoxyethyl)amino)-2′-(1H-tetrazol-5-yl)biphenyl-3-yl)-3-p-tolylurea] the same measures were 270 nM and 220 nM.
For `COc1ccc(-c2cc(NC(=O)Nc3ccc(C)cc3)c(N(C)C3CCCCC3)cc2F)cc1C(=O)O` [Example 220, 4′-(cyclohexyl(methyl)ami-no)-2′-fluoro-4-methoxy-5′-(3-p-tolylureido)biphenyl-3-carboxylic acid] the same measures were 1470 nM and 440 nM.
For `Cc1ccc(NC(=O)Nc2cc(-c3ccccc3-c3nnn[nH]3)ccc2N(C)C2CCCCC2)cc1` [Example 44, 1-(4-(cyclohexyl (methyl)amino)-2′-(1H-tetrazol-5-yl)biphenyl-3-yl)-3-p-tolylurea] the same measures were 7.93 nM and 1.72 nM.
`COc1ccc(-c2ccc(N(CC(F)F)CC3CC3)c(NC(=O)Nc3ccc(C)cc3)c2)cc1C(=O)O` [Example 62, 4′-((cyclopropylmethyl) (2,2-difluoroethyl)amino)-4-methoxy-3′-(3-p-tolylureido)biphenyl-3-carboxylic acid]: the half-inhibitory concentration (IC50) came to 4120 nM at IDO [1] and 2280 nM at IDO [2].
For `CN(c1ccc(-c2ccccc2C(=O)O)cc1NC(=O)Nc1ccccc1F)C1CCCCC1` [Example 219, 4′-(cyclohexyl(methyl)amino)-3′-(3-(2-fluorophenyl)ureido) biphenyl-2-carboxylic acid] the same measures were 80 nM and 10 nM.
Turning to `COC(CN(C)c1ccc(-c2ccccc2C(=O)O)cc1NC(=O)Nc1ccc(C)cc1)OC` [Example 54, 4′-((2,2-dimethoxyethyl) (methyl)amino)-3′-(3-p-tolylureido) biphenyl-2-carboxylic acid], the IC50 against IDO [1] is 300 nM; on IDO [2], 80 nM.
For `Cc1ccc(NC(=O)Nc2cc(-c3ccccc3C(=O)O)ccc2N(C)C2CCCCC2)cc1` [Example 213, 4′-(cyclohexyl(methyl)amino)-3′-(3-p-tolylureido)biphenyl-2-carboxylic acid] the same measures were 10 nM and 6.56 nM.
For `Cc1ccc(NC(=O)Nc2cc(-c3ccccc3C(=O)O)c(F)cc2N(CC(F)F)CC2CC2)cc1` [Example 224, 4′-((cyclopropylmethyl)(2,2-difluoroethyl)amino)-2′-fluoro-5′-(3-p-tolylureido)biphenyl-2-carboxylic acid] the same measures were 640 nM and 440 nM.
For `CCN(c1ccc(-c2ccccc2-c2nnn[nH]2)cc1NC(=O)Nc1ccc(C)cc1)C1CCCCC1` [Example 216, 1-(4-(cyclohexyl(ethyl)amino)-2′-(1H-tetrazol-5-yl)biphenyl-3-yl)-3-p-tolylurea] the same measures were 0.835 nM and 0.831 nM.
As to `Cc1ccc(NC(=O)Nc2cc(-c3ccccc3-c3nnn[nH]3)ccc2N(C)C2CCOCC2)cc1` [Example 50, 1-(4-(methyl(tetra-hydro-2H-pyran-4-yl)amino)-2′-(1H-tetrazol-5-yl)biphenyl-3-yl)-3-p-tolylurea], the IC50 was found to be 310 nM against IDO [1] and 60 nM at IDO [2].
`CN(c1ccc(-c2ccccc2-c2nnn[nH]2)cc1NC(=O)Nc1ccccc1C(F)(F)F)C1CCCCC1` [Example 212, 1-(4-(cyclohexyl(methyl)amino)-2′-(1H-tetrazol-5-yl)biphenyl-3-yl)-3-(2-(trifluoromethyl)phenyl)urea]: the values for the IC50 at IDO [1] and on IDO [2] were 1270 nM and 200 nM, respectively.
For `Cc1ccc(NC(=O)Nc2cc(-c3ccccc3-c3nnn[nH]3)ccc2NC2CCCCC2)cc1` [Example 46, 1-(4-(cyclohexylamino)-2′-(1H-tetrazol-5-yl)biphenyl-3-yl)-3-p-tolylurea], in that order: 130 nM and 90 nM.
For `CN(c1ccc(-c2ccccc2-c2nnn[nH]2)cc1NC(=O)Nc1ccccc1Cl)C1CCCCC1` [Example 45, 1-(2-chlorophenyl)-3-(4-(cyclohexyl (methyl)amino)-2′-(1H-tetrazol-5-yl)biphenyl-3-yl)urea] the same measures were 60 nM and 10 nM.
For `Cc1ccc(NC(=O)Nc2cc(-c3ccccc3-c3nnn[nH]3)ccc2N(CC(F)F)CC2CC2)cc1` [Example 60, 1-(4-((cyclopropylmethyl) (2,2-difluoroethyl)amino)-2′-(1H-tetrazol-5-yl)biphenyl-3-yl)-3-p-tolylurea] the same measures were 140 nM and 140 nM.
In the case of `CN(c1ccc(-c2ccccc2C(=O)O)cc1NC(=O)Nc1ccccc1)C1CCCCC1` [Example 218, 4′-(cyclohexyl(methyl)amino)-3′-(3-phenylureido)biphenyl-2-carboxylic acid], the half-inhibitory concentration (IC50) at IDO [1] amounted to 490 nM; at IDO [2], 90 nM.
